≈ marks a conversion by molar mass, not a printed value.

What is called melting point is the temperature, or range, at which the solid turns liquid.

In series [1] the test system is Mannheimia haemolytica (s = susceptible). Put plainly: MIC determination by microdilution in liquid medium, Man hae s. The settings on record: susceptible strain. Format: cell-based. On the technique in general: In broth dilution the organism is exposed to a series of concentrations in liquid medium.
The test system of series [2] is Mannheimia haemolytica (r = resistant). The series is described as follows: MIC determination by microdilution in liquid medium, Man hae r. Format: cell-based. Particulars: resistant strain.
Series [3] concerns Bordetella bronchiseptica. Put plainly: MIC determination by microdilution in liquid medium, Bor bron. Format: cell-based.
In series [4] the test system is Pseudomonas aeruginosa (s = susceptible). The series is described as follows: MIC determination by microdilution in liquid medium, Pse aer s. It counts as cell-based. Particulars: susceptible strain.
For series [5], the system named is Pseudomonas aeruginosa (r = resistant). The series is described as follows: MIC determination by microdilution in liquid medium, Pse aer r. Format: cell-based. Particulars: read-out: MIC Pse aer r.
A further series deals with Escherichia coli. Put plainly: MIC determination by microdilution in liquid medium, E coli. It counts as cell-based.
The subject of the next series is Streptococcus uberis. The series is described as follows: MIC determination by microdilution in liquid medium, Str ube. Format: cell-based.
Series [6] has as its system Staphylococcus aureus (s = susceptible). Put plainly: MIC determination by microdilution in liquid medium, Sta aur s. Format: cell-based. The settings on record: susceptible strain.
Series [7] deals with Staphylococcus aureus (r = resistant). The series is described as follows: MIC determination by microdilution in liquid medium, Sta aur r. It counts as cell-based. The settings on record: read-out: MIC Sta aur r.
Another series concerns Mycoplasma bovis. Put plainly: MIC determination by microdilution in liquid medium, Myc bov. It counts as cell-based. The settings on record: Mycoplasmopsis bovis.
Another series relates to Clostridium perfringens. The series is described as follows: microbe, parasite or virus in culture. Particulars: read-out: MIC Clo per. It counts as cell-based.
The test system of the next series is E. coli ATCC 25922. Put plainly: MIC determination by microdilution in liquid medium, E. coli ATCC 25922. It counts as cell-based. Particulars: Escherichia coli, ATCC25922.
Another series concerns M. bovirhinis. The series is described as follows: MIC determination by microdilution in liquid medium, M. bovirhinis. It counts as cell-based. Particulars: Mycoplasma.
The next series has as its system E. faecalis ATCC 29212. The series is described as follows: MIC determination by microdilution in liquid medium, E. faecalis ATCC 29212. It counts as cell-based. The settings on record: Enterococcus faecalis, ATCC29212, read-out: MIC E. fae-calis ATCC 29212.

In turn, `CN1COc2c(N3CCC(NC(=O)C(F)(F)F)C3)c(F)cc3c(=O)c(C(=O)O)cn1c23` (stereo not shown) (hydrate or solvate) [Example 27, 8-Fluoro-3-methyl-6-oxo-9-[3-(2,2,2-trifluoro-acetylamino)-pyrrolidin-1-yl]-2,3-dihydro-6H-1-oxa-3,3a-diaza-phenalene-5-carboxylic acid] had a melting point of 281 to 283 °C.
Same read-out and setting: to `CN1COc2c(N3CC[C@H](NC(=O)C(F)(F)F)C3)c(F)cc3c(=O)c(C(=O)O)cn1c23` (hydrate or solvate) [Example 28, 8-Fluoro-3-methyl-6-oxo-9-[(S)-3-(2,2,2-trifluoro-acetylamino)-pyrrolidin-1-yl]-2,3-dihydro-6H-1-oxa-3,3a-diaza-phenalene-5-carboxylic acid] belongs 273 to 275 °C; to `CN1COc2c(N3CC[C@@H](NC(=O)C(F)(F)F)C3)c(F)cc3c(=O)c(C(=O)O)cn1c23` (hydrate or solvate) [Example 29, 8-Fluoro-3-methyl-6-oxo-9-[(R)-3-(2,2,2-trifluoro-acetylamino)-pyrrolidin-1-yl]-2,3-dihydro-6H-1-oxa-3,3a-diaza-phenalene-5-carboxylic acid], 273 to 275 °C; to `CN1COc2c(N3C[C@@H](N)C(C)(C)C3)c(F)cc3c(=O)c(C(=O)O)cn1c23` (hydrate or solvate) [Example 34, 9-((S)-4-Amino-3,3-dimethyl-pyrrolidin-1-yl)-8-fluoro-3-methyl-6-oxo-2,3-dihydro-6H-1-oxa-3,3a-diaza-phenalene-5-carboxylic acid], 230 °C (dec.).
Same read-out and setting: in the case of `CN1COc2c(N3C[C@H](N)C(C)(C)C3)c(F)cc3c(=O)c(C(=O)O)cn1c23` (hydrate or solvate) [Example 35, 9-((R)-4-Amino-3,3-dimethyl-pyrrolidin-1-yl)-8-fluoro-3-methyl-6-oxo-2,3-dihydro-6H-1-oxa-3,3a-diaza-phenalene-5-carboxylic acid] it was 222 °C (dec.); in that of `CN1COc2c(N3CCC(C(O)c4nccs4)C3)c(F)cc3c(=O)c(C(=O)O)cn1c23` (stereo not shown) (hydrate or solvate) [Example 38, 8-Fluoro-9-[3-(hydroxy-thiazol-2-yl-methyl)-pyrrolidin-1-yl]-3-methyl-6-oxo-2,3-dihydro-6H-1-oxa-3,3a-diaza-phenalene-5-carboxylic acid], 215 to 217 °C.
Same read-out and setting: to `CN1COc2c(N3CCC(C(N)c4nccs4)C3)c(F)cc3c(=O)c(C(=O)O)cn1c23` (stereo not shown) (hydrate or solvate) [Example 39, 9-[3-(Amino-thiazol-2-yl-methyl)-pyrrolidin-1-yl]-8-fluoro-3-methyl-6-oxo-2,3-dihydro-6H-1-oxa-3,3a-diaza-phenalene-5-carboxylic acid] belongs 233 to 235 °C; to `CN1COc2c(N3CC(N)C(C)(C)C3)c(F)cc3c(=O)c(C(=O)O)cn1c23` (racemic) (hydrate or solvate) [Example 33, 9-((R,S)-4-Amino-3,3-dimethyl-pyrrolidin-1-yl)-8-fluoro-3-methyl-6-oxo-2,3-dihydro-6H-1-oxa-3,3a-diaza-phenalene-5-carboxylic acid], 237 °C (dec.).
Take `CN1COc2c(N3CC(N)C(C)(C)C3)c(F)cc3c(=O)c(C(=O)O)cn1c23` (racemic) [Example 33, 9-((R,S)-4-Amino-3,3-dimethyl-pyrrolidin-1-yl)-8-fluoro-3-methyl-6-oxo-2,3-dihydro-6H-1-oxa-3,3a-diaza-phenalene-5-carboxylic acid]: the MIC is 0.06 µg/mL (≈ 0.159 µM) in [1]; 8 µg/mL (≈ 21.3 µM) in series [2]; 0.5 µg/mL (≈ 1.33 µM) in [3]; 0.5 µg/mL (≈ 1.33 µM) in series [4]; 8 µg/mL (≈ 21.3 µM) in series [5]; 0.06 µg/mL (≈ 0.159 µM) against Escherichia coli. Also, the MIC was 0.12 µg/mL (≈ 0.319 µM) in the series on Streptococcus uberis; under 0.03 µg/mL in series [6]; 2 µg/mL (≈ 5.31 µM) in [7]; 0.5 µg/mL (≈ 1.33 µM) against Mycoplasma bovis; 0.06 µg/mL (≈ 0.159 µM) in the series on Clostridium perfringens; 0.03 µg/mL (≈ 0.0797 µM) in the series on E. coli ATCC 25922. Moreover, in the series with M. bovirhinis, the MIC is 0.25 µg/mL (≈ 0.664 µM).
Turning to `CN1COc2c(N3CCC(CNc4cnccn4)C3)c(F)cc3c(=O)c(C(=O)O)cn1c23` (stereo not shown) [Example 1, 8-fluoro-3-methyl-6-oxo-9-[3-(pyrazin-2-ylaminomethyl)-pyrrolidin-1-yl]-2,3-dihydro-6H-1-oxa-3,3a-diaza-phenalene-5-carboxylic acid], the MIC was 0.06 µg/mL (≈ 0.136 µM) in series [1]; 16 µg/mL (≈ 36.3 µM) in series [2]; 0.5 µg/mL (≈ 1.14 µM) in [3]; 8 µg/mL (≈ 18.2 µM) in series [4]; 16 µg/mL (≈ 36.3 µM) in series [5]; 0.25 µg/mL (≈ 0.568 µM) in the series on Escherichia coli. In addition, the MIC against Streptococcus uberis was under 0.03 µg/mL; in series [6], under 0.03 µg/mL; in [7] it was 0.5 µg/mL (≈ 1.14 µM); in the series on Mycoplasma bovis, under 0.03 µg/mL; in the series with Clostridium perfringens, 0.06 µg/mL (≈ 0.136 µM); against E. coli ATCC 25922, 0.12 µg/mL (≈ 0.272 µM). Further, the MIC in the series on E. faecalis ATCC 29212 is at most 0.03 µg/mL; with M. bovirhinis, 0.06 µg/mL (≈ 0.136 µM).
Consider `CN1COc2c(N3CCC(Nc4cnccn4)C3)c(F)cc3c(=O)c(C(=O)O)cn1c23` (stereo not shown) [Example 7], for which the MIC in series [1] stood at 0.06 µg/mL (≈ 0.141 µM); in series [2], 16 µg/mL (≈ 37.5 µM); in series [3] it was 0.5 µg/mL (≈ 1.17 µM); in series [4] it was 2 µg/mL (≈ 4.69 µM); in [5] it was 16 µg/mL (≈ 37.5 µM); with Escherichia coli, 0.25 µg/mL (≈ 0.586 µM). For the same compound, the MIC in the series with Streptococcus uberis was 0.06 µg/mL (≈ 0.141 µM); in series [6] it was under 0.03 µg/mL; in series [7] it was 0.5 µg/mL (≈ 1.17 µM); against Mycoplasma bovis, under 0.03 µg/mL; in the series with Clostridium perfringens, 0.06 µg/mL (≈ 0.141 µM); against E. coli ATCC 25922, 0.25 µg/mL (≈ 0.586 µM). In addition, the MIC in the series with E. faecalis ATCC 29212 was at most 0.03 µg/mL; against M. bovirhinis, 0.06 µg/mL (≈ 0.141 µM).
For `CN1COc2c(N3CCC(Nc4ccccn4)C3)c(F)cc3c(=O)c(C(=O)O)cn1c23` (stereo not shown) [Example 8], the MIC was 0.25 µg/mL (≈ 0.588 µM) in series [1]; 32 µg/mL (≈ 75.2 µM) in series [2]; over 1 µg/mL in [3]; 8 µg/mL (≈ 18.8 µM) in series [4]; over 32 µg/mL in [5]; 0.5 µg/mL (≈ 1.18 µM) in the series on Escherichia coli. Further, the MIC was 0.25 µg/mL (≈ 0.588 µM) in the series with Streptococcus uberis; 0.06 µg/mL (≈ 0.141 µM) in series [6]; 4 µg/mL (≈ 9.4 µM) in [7]; 0.06 µg/mL (≈ 0.141 µM) in the series with Mycoplasma bovis; under 0.03 µg/mL with Clostridium perfringens; 0.12 µg/mL (≈ 0.282 µM) against E. coli ATCC 25922. Further, the MIC with E. faecalis ATCC 29212 amounted to 0.25 µg/mL (≈ 0.588 µM); in the series on M. bovirhinis, 0.06 µg/mL (≈ 0.141 µM).
As for `CN1COc2c(N3CCC(Nc4nncs4)C3)c(F)cc3c(=O)c(C(=O)O)cn1c23` (stereo not shown) [Example 10, 8-Fluoro-3-methyl-6-oxo-9-[3-([1,3,4]thiadiazol-2-ylamino)-pyrrolidin-1-yl]-2,3-dihydro-6H1-oxa-3,3a-diaza-phenalene-5-carboxylic acid], the MIC was 0.03 µg/mL (≈ 0.0694 µM) in series [1]; over 32 µg/mL in series [2]; 2 µg/mL (≈ 4.62 µM) in series [3]; 4 µg/mL (≈ 9.25 µM) in series [4]; over 32 µg/mL in series [5]; 0.25 µg/mL (≈ 0.578 µM) against Escherichia coli. Moreover, the MIC with Streptococcus uberis is under 0.03 µg/mL; in [6], under 0.03 µg/mL; in series [7] it was 4 µg/mL (≈ 9.25 µM); against Mycoplasma bovis, 0.12 µg/mL (≈ 0.277 µM); with Clostridium perfringens, under 0.03 µg/mL; in the series on E. coli ATCC 25922, 1 µg/mL (≈ 2.31 µM). Further, the figures for the MIC in the series with E. faecalis ATCC 29212 and in the series with M. bovirhinis were 0.25 µg/mL (≈ 0.578 µM) and 2 µg/mL (≈ 4.62 µM), respectively.
Consider `CN1COc2c(N3CC[C@H](NC(=O)C(F)(F)F)C3)c(F)cc3c(=O)c(C(=O)O)cn1c23` [Example 28, 8-Fluoro-3-methyl-6-oxo-9-[(S)-3-(2,2,2-trifluoro-acetylamino)-pyrrolidin-1-yl]-2,3-dihydro-6H-1-oxa-3,3a-diaza-phenalene-5-carboxylic acid], for which the MIC in series [1] was 0.008 µg/mL (≈ 0.018 µM); in series [2] it was 4 µg/mL (≈ 9 µM); in series [3] it was 1 µg/mL (≈ 2.25 µM); in series [4], 0.06 µg/mL (≈ 0.135 µM); in [5], 1 µg/mL (≈ 2.25 µM); with Escherichia coli, 0.03 µg/mL (≈ 0.0675 µM). Also, the MIC against Streptococcus uberis worked out at 0.25 µg/mL (≈ 0.563 µM); in series [6], 0.12 µg/mL (≈ 0.27 µM); in series [7], 4 µg/mL (≈ 9 µM); in the series on Mycoplasma bovis, 1 µg/mL (≈ 2.25 µM); in the series with Clostridium perfringens, 0.12 µg/mL (≈ 0.27 µM); in the series on E. coli ATCC 25922, 0.03 µg/mL (≈ 0.0675 µM). Besides, the MIC in the series with E. faecalis ATCC 29212 lay in the range of 1 to 2 µg/mL (≈ 2.25 to 4.5 µM).
For the compound `CN1COc2c(N3C[C@H](N)C(C)(C)C3)c(F)cc3c(=O)c(C(=O)O)cn1c23` [Example 35, 9-((R)-4-Amino-3,3-dimethyl-pyrrolidin-1-yl)-8-fluoro-3-methyl-6-oxo-2,3-dihydro-6H-1-oxa-3,3a-diaza-phenalene-5-carboxylic acid], the MIC worked out at 0.06 µg/mL (≈ 0.159 µM) in series [1]; 8 µg/mL (≈ 21.3 µM) in [2]; 1 µg/mL (≈ 2.66 µM) in [3]; 0.5 µg/mL (≈ 1.33 µM) in [4]; 8 µg/mL (≈ 21.3 µM) in series [5]; 0.06 µg/mL (≈ 0.159 µM) against Escherichia coli. In addition, the MIC against Streptococcus uberis is 0.12 µg/mL (≈ 0.319 µM); in series [6] it was 0.06 µg/mL (≈ 0.159 µM); in series [7] it was 2 µg/mL (≈ 5.31 µM); with Mycoplasma bovis, 0.5 µg/mL (≈ 1.33 µM); with Clostridium perfringens it was 0.12 µg/mL (≈ 0.319 µM); with E. coli ATCC 25922, 0.03 µg/mL (≈ 0.0797 µM). In the series on E. faecalis ATCC 29212, the MIC amounted to 0.25 µg/mL (≈ 0.664 µM).

(Values after patent publication US7713965B2, “7-substituted 3-carboxy-oxadiazino-quinolone derivatives, their preparation and their application as anti-bacterials” (Vetoquinol SA, priority 2008, dated 2010).)
